Our source for the EC50 values is article PMC7478165, “Derivatisation of parthenolide to address chemoresistant chronic lymphocytic leukaemia” (MedChemComm, 2019).

Broadly, the EC50 is the concentration giving half of the maximal effect.

The subject of the first assay is MEC1 CLL cell line. The experiment in a line: cells. Set-up: alamarBlue (resazurin reduction) viability assay in MEC1 CLL cells. Particulars: Homo sapiens, MEC1, 24 h; read-out: alamarBlue EC50 (uM) average. From the text: Defective p53-signalling increases genomic instability and drives tumour progression. A high frequency of p53 inactivation is found in relapsed, treatment-resistant, high risk CLL.[30] […] Owing to resource availability a subset of up to ten of these compounds was prioritised for further investigation. Compounds 2d, 2e, 2j, 2aa, 5a, 5d, 5e, 5f, 5ab and 6b were selected on the basis of reasons including ease of synthetic access, diversity across the chemical space probed and novelty. Those prepared under conditions (i)Scheme 1 (2d, 5a and 6b) were available on a scale and in a purity to directly permit follow-up studies, whereas compounds prepared under conditions (ii)Scheme 1 were prepared on a small scale so were resynthesised. These seven compounds (2e, 2j, 2aa, 5d, 5e, 5f and 5ab) were isolated on >30 mg scale in high purity and progressed to more following studies. Biological efforts at Sygnature Discovery (where differing to University of Birmingham) MEC1 cells were obtained from the American Type Culture Collection (Manassas, VA 20110 USA) and were routinely cultured in RPMI 1640 medium (Sigma-Aldrich) supplemented with 1% L-glutamine (Sigma-Aldrich), 1% Penicillin/Streptomycin (Sigma-Aldrich) and 10% FBS (Gibco). The MEC1 proliferation assay was conducted by performing a re-feed of the MEC1 cells 24 h prior to cell seeding. On the day of the assay, cells were seeded into a 384-well assay plate at a density of 12,500 cells/well in 25 μL of complete MEC1 medium. Compound treatment was performed on the day of cell seeding, with compounds prepared as duplicate compound response curves (final DMSO concentration of 0.6%). Post compound treatment, MEC1 assay plates were returned to a 37 °C/5% CO2 incubator for 24 h of incubation. Following compound treatment, cellular viability was determined by measuring reduction of alamarBlue® reagent (Invitrogen). alamarBlue® reagent (2.5 μL) was added to each assay well to give a 1:10 dilution of the neat stock and assay plates were incubated for 3 h at 37 °C/5% CO2. Reduction of alamarBlue® was determined using an Envision Xcite plate reader (Perkin Elmer) with an excitation wavelength of 560 nm set and an emission wavelength of 590 nm set. Cell viability was determined by normalising raw fluorescent data to a cell only high control and Parthenolide treated low control to provide percentage viability readout. Data was plotted and EC50 values extracted and reported EC50s represent an average of at least two independent assays.
A general note: The colour change of resazurin is a common sign of viable cells or microbes.
As to `CC1=CCCC2(C)OC2C2OC(=O)C(CN(C)C(C)C)C2CC1` (stereo not shown) [2b], the EC50 is above 30 µM.

`CC1=CCCC2(C)OC2C2OC(=O)C(CN(C)CCO)C2CC1` (stereo not shown) [2c]: the EC50 was found to be 5.2 µM. `CC1=CCCC2(C)OC2C2OC(=O)C(CN(C)Cc3ccc(Cl)cc3)C2CC1` (stereo not shown) [2h]: the half-maximal effective concentration (EC50) came out at 18.3 µM. Same read-out and setting: next, `CCOc1cccc(CN(CCO)CC2C(=O)OC3C2CCC(C)=CCCC2(C)OC32)c1` (stereo not shown) [2i]: 19.2 µM.

Regarding `CC1=CCCC2(C)OC2C2OC(=O)C(CN(C)Cc3n[nH]c4c3CCCCC4)C2CC1` (stereo not shown) [2k], the EC50 turned out to be 19.3 µM. Still for that read-out and setting: next, `CCN(Cc1cc(Cl)ccc1OC)CC1C(=O)OC2C1CCC(C)=CCCC1(C)OC21` (stereo not shown) [2l]: 19.8 µM. Turning to `CC1=CCCC2(C)OC2C2OC(=O)C(CN(C)Cc3nnc(-c4ccccc4)o3)C2CC1` (stereo not shown) [2n], the half-maximal effective concentration (EC50) was above 30 µM. In the case of `CC1=CCCC2(C)OC2C2OC(=O)C(CN(C)Cc3cccc(C(F)(F)F)c3)C2CC1` (stereo not shown) [2p], the EC50 is above 30 µM.

Take `CC1=CCCC2(C)OC2C2OC(=O)C(CN(C)Cc3nc(-c4ccccn4)no3)C2CC1` (stereo not shown) [2q]: the half-maximal effective concentration (EC50) is above 30 µM. Consider `CC1=CCCC2(C)OC2C2OC(=O)C(CN(Cc3sccc3C)C3CC3)C2CC1` (stereo not shown) [2r], for which the EC50 was above 30 µM. The same measure, in the same setting: the figure for `CCCc1nc(CN(CC)CC2C(=O)OC3C2CCC(C)=CCCC2(C)OC32)no1` (stereo not shown) [2s] is above 30 µM; for `CC1=CCCC2(C)OC2C2OC(=O)C(CN(Cc3ccco3)Cc3cccs3)C2CC1` (stereo not shown) [2t] it is above 30 µM; for `CC1=CCCC2(C)OC2C2OC(=O)C(CN(Cc3ccncc3)Cc3ccc4c(c3)OCO4)C2CC1` (stereo not shown) [2u] it is above 30 µM.

`CC1=CCCC2(C)OC2C2OC(=O)C(CN(C)Cc3nc4cc(C)c(C)cc4[nH]3)C2CC1` (stereo not shown) [2y]: the EC50 was above 30 µM. For `CC1=CCCC2(C)OC2C2OC(=O)C(CNCCO)C2CC1` (stereo not shown) [4a], the EC50 came to 19 µM. Turning to `CC1=CCCC2(C)OC2C2OC(=O)C(CNCc3ccc(F)cc3C(F)(F)F)C2CC1` (stereo not shown) [4aa], the half-maximal effective concentration (EC50) was above 30 µM. Same read-out and setting: next, `CC1=CCCC2(C)OC2C2OC(=O)C(CNCc3c(F)cccc3C(F)(F)F)C2CC1` (stereo not shown) [4ab]: above 30 µM. Still for that read-out and setting: the figure for `CC1=CCCC2(C)OC2C2OC(=O)C(CNCc3ccc(Cl)cc3Cl)C2CC1` (stereo not shown) [4ac] is above 30 µM; for `CC1=CCCC2(C)OC2C2OC(=O)C(CNCc3c(F)cccc3Cl)C2CC1` (stereo not shown) [4ad] it is above 30 µM. On the same count and under the same terms, the figure for `COCCNCC1C(=O)OC2C1CCC(C)=CCCC1(C)OC21` (stereo not shown) [4b] is above 30 µM; for `CC1=CCCC2(C)OC2C2OC(=O)C(CNCc3ccccc3)C2CC1` (stereo not shown) [4c] it is 20.4 µM. Regarding `C#CCNCC1C(=O)OC2C1CCC(C)=CCCC1(C)OC21` (stereo not shown) [4d], the EC50 is above 30 µM. With `CC1=CCCC2(C)OC2C2OC(=O)C(CNCC3CCOCC3)C2CC1` (stereo not shown) [4f], the EC50 turned out to be 23.3 µM.

Take `CC1=CCCC2(C)OC2C2OC(=O)C(CNCCOc3cccc(C)c3)C2CC1` (stereo not shown) [4h]: the EC50 was determined as 21.9 µM. Still for that read-out and setting: the figure for `CC1=CCCC2(C)OC2C2OC(=O)C(CNCc3ccc(Cl)cc3F)C2CC1` (stereo not shown) [4i] is above 30 µM; for `COc1ccc(-c2noc(CNCC3C(=O)OC4C3CCC(C)=CCCC3(C)OC43)n2)cc1OC` (stereo not shown) [4k] it is above 30 µM. With `CC1=CCCC2(C)OC2C2OC(=O)C(CNCc3c(F)cc(F)cc3F)C2CC1` (stereo not shown) [4l], the EC50 was above 30 µM. Same read-out and setting: next, `CC1=CCCC2(C)OC2C2OC(=O)C(CNCc3ccco3)C2CC1` (stereo not shown) [4m]: above 30 µM; `CC1=CCCC2(C)OC2C2OC(=O)C(CNCc3ccc(N(C)C)cc3)C2CC1` (stereo not shown) [4n]: above 30 µM. The same measure, in the same setting: the figure for `COc1ccccc1CNCC1C(=O)OC2C1CCC(C)=CCCC1(C)OC21` (stereo not shown) [4p] is above 30 µM. In the case of `CC1=CCCC2(C)OC2C2OC(=O)C(CNCc3ccccc3N(C)C)C2CC1` (stereo not shown) [4q], the 50% effective concentration (EC50) is above 30 µM. The same measure, in the same setting: the figure for `CC1=CCCC2(C)OC2C2OC(=O)C(CNCC(C)(C)N3CCOCC3)C2CC1` (stereo not shown) [4r] is above 30 µM; for `CC1=CCCC2(C)OC2C2OC(=O)C(CNCCc3nccs3)C2CC1` (stereo not shown) [4s] it is above 30 µM. Consider `CC1=CCCC2(C)OC2C2OC(=O)C(CNCc3c(Cl)cccc3Cl)C2CC1` (stereo not shown) [4t], for which the 50% effective concentration (EC50) is above 30 µM.

As to `CC1=CCCC2(C)OC2C2OC(=O)C(CNCc3ccccc3C(F)(F)F)C2CC1` (stereo not shown) [4u], the EC50 was above 30 µM. Consider `CC1=CCCC2(C)OC2C2OC(=O)C(CNCc3ccc(C(F)(F)F)cc3)C2CC1` (stereo not shown) [4v], for which the EC50 was above 30 µM. On the same count and under the same terms, the figure for `CC1=CCCC2(C)OC2C2OC(=O)C(CNCc3ccc(OC(F)(F)F)cc3)C2CC1` (stereo not shown) [4w] is above 30 µM. As for `CC1=CCCC2(C)OC2C2OC(=O)C(CNCc3ccccc3OC(F)(F)F)C2CC1` (stereo not shown) [4x], the concentration giving a half-maximal response (EC50) was above 30 µM. With `CC1=CCCC2(C)OC2C2OC(=O)C(CNCc3cccc(OC(F)(F)F)c3)C2CC1` (stereo not shown) [4y], the EC50 is above 30 µM.

In the case of `CC1=CCCC2(C)OC2C2OC(=O)C(CNCc3c(F)cccc3F)C2CC1` (stereo not shown) [4z], the EC50 is above 30 µM. Consider `CC1=CCCC2(C)OC2C2OC(=O)C(CN3CCCCC3)C2CC1` (stereo not shown) [5b], for which the concentration giving a half-maximal response (EC50) turned out to be 7.8 µM. The same measure, in the same setting: the figure for `CC1=CCCC2(C)OC2C2OC(=O)C(CN3CCN(C)CC3)C2CC1` (stereo not shown) [5c] is above 30 µM; for `CC1=CCCC2(C)OC2C2OC(=O)C(CN3CCC4(CC3)OCCO4)C2CC1` (stereo not shown) [5g] it is 15.2 µM; for `CCCC1CCN(CC2C(=O)OC3C2CCC(C)=CCCC2(C)OC32)CC1` (stereo not shown) [5i] it is 22.2 µM. Same read-out and setting: the figure for `COCCN1CCN(CC2C(=O)OC3C2CCC(C)=CCCC2(C)OC32)CC1` (stereo not shown) [5j] is 19.5 µM; for `CC1=CCCC2(C)OC2C2OC(=O)C(CN3CCC(N4CCc5ccccc5C4)CC3)C2CC1` (stereo not shown) [5k] it is 16.3 µM. As for `CC1=CCCC2(C)OC2C2OC(=O)C(CN3CCN(c4ncccn4)CC3)C2CC1` (stereo not shown) [5m], the half-maximal effective concentration (EC50) was determined as 24.8 µM. The same measure, in the same setting: next, `CC1=CCCC2(C)OC2C2OC(=O)C(CN3CCN(Cc4cccc(C)c4)C(=O)C3)C2CC1` (stereo not shown) [5o]: above 30 µM; `CC1=CCCC2(C)OC2C2OC(=O)C(CN3CCC(C#N)(c4ccccc4)CC3)C2CC1` (stereo not shown) [5p]: above 30 µM. As for `CC1=CCCC2(C)OC2C2OC(=O)C(CN3CCC(N4CCCCC4)CC3)C2CC1` (stereo not shown) [5r], the EC50 was above 30 µM. Same read-out and setting: the figure for `CC1=CCCC2(C)OC2C2OC(=O)C(CN3CCN(C(C)(C)C)CC3)C2CC1` (stereo not shown) [5s] is above 30 µM; for `CC1=CCCC2(C)OC2C2OC(=O)C(CN3CCN(CCc4cccs4)CC3)C2CC1` (stereo not shown) [5t] it is above 30 µM; for `CC1=CCCC2(C)OC2C2OC(=O)C(CN3CCN(CC4CCCCC4)CC3)C2CC1` (stereo not shown) [5u] it is above 30 µM.

`CC1=CCCC2(C)OC2C2OC(=O)C(CN3CCn4c(nnc4C(F)(F)F)C3)C2CC1` (stereo not shown) [5v]: the 50% effective concentration (EC50) is above 30 µM.

As for `CCCCN1CCN(CC2C(=O)OC3C2CCC(C)=CCCC2(C)OC32)CC1` (stereo not shown) [5x], the concentration for a half-maximal effect (EC50) was above 30 µM.

On to `CC1=CCCC2(C)OC2C2OC(=O)C(CSCCO)C2CC1` (stereo not shown) [compound 3], for which the EC50 is above 30 µM.

In a further assay the test system is MEC1 CLL cell line. Nature of the assay: alamarBlue assay, in vitro antileukaemic activity against MEC1 CLL cell line. The class given is cell-based. The settings on record: Homo sapiens, MEC1, read-out: EC50 ave., MEC1 cell line, alamarBlue assay, library screen. From the text: Defective p53-signalling increases genomic instability and drives tumour progression. A high frequency of p53 inactivation is found in relapsed, treatment-resistant, high risk CLL.[30] […] Owing to resource availability a subset of up to ten of these compounds was prioritised for further investigation. Compounds 2d, 2e, 2j, 2aa, 5a, 5d, 5e, 5f, 5ab and 6b were selected on the basis of reasons including ease of synthetic access, diversity across the chemical space probed and novelty. Those prepared under conditions (i)Scheme 1 (2d, 5a and 6b) were available on a scale and in a purity to directly permit follow-up studies, whereas compounds prepared under conditions (ii)Scheme 1 were prepared on a small scale so were resynthesised. These seven compounds (2e, 2j, 2aa, 5d, 5e, 5f and 5ab) were isolated on >30 mg scale in high purity and progressed to more following studies.
Following the identification of 5f as the most promising drug-like derivative of PTL from the aforementioned parallel/high-throughput screening, the anti-leukaemic activity of 5f was tested once more and compared directly with that of PTL (1) and DMAPT (2a), which serve as comparators and positive controls.
Amine 7 was successfully prepared as follows: 4-Piperidinecarboxylic acid was N-Boc protected to deliver 8 in 92% yield.[43] In order to confidently assign the NMR spectra of compound 8 J-MOD, HSQC and ^1H–^1H COSY were helpful, particularly in establishing that a broad resonance in the proton-decoupled ^13C NMR spectrum, centred on 42.8 ppm, corresponds to the ring-carbons bonded to nitrogen. The carboxylic acid of 8 was converted to the corresponding ethyl-3-keto-propanoate 9 in 24% yield. Conversion of 9 to the N-Boc protected congener 10, was achieved by treatment with acetamidine hydrochloride and potassium carbonate, furnishing 10 in 77% yield. Treatment with trifluoroacetic acid delivered desired compound 7 in 99% yield for the Boc-deprotection step (scale 200 mg, 17% over four linear steps). Thus, evidencing accessibility of amine 7 and with it in hand, it was timely to probe any activity arising from the amine alone. MEC1 sensitivity to 1, 5f and 7 was compared in parallel using the alamarBlue® assay (Fig. 6). […] A pre-peer-reviewed preprint of this article was deposited and may be viewed elsewhere.[44]
`CC1=CCCC2(C)OC2C2OC(=O)C(CN(C)CCO)C2CC1` (stereo not shown) [Compound 2c]: the EC50 is below 15 µM.

The assay is the same for the next values; noted with them: MEC1 cells, alamarBlue, 1, 5f and 7 compared in parallel, CalcuSyn.
Take `Cc1nc(O)cc(C2CCNCC2)n1` [Amine 7]: the EC50 result is on record as “could not be determined”.
